Reference: article PMC11538350, “Synthetic studies on the tetrasubstituted D-ring of cystobactamids lead to potent terephthalic acid antibiotics” (Communications Chemistry, 2024)
≈ marks a conversion by molar mass, not a printed value.

How the values were obtained:
E. ae. CIP 106754 = assay: MIC assay; type: cell-based, Enterobacter aerogenes; settings: Klebsiella aerogenes, CIP106754, read-out: MIC E. ae. CIP 106754
Protocol: (§1) All cystobactamids were evaluated in MIC-assays on a panel of representative ESKAPE strains with focus on A. baumannii (Tables 1 and 2). Compared to our previous work[10],[17],[18], we specifically included more challenging test strains with known resistances against gyrase inhibitors.
(§2) 2.1 Materials and Methods
(§3) Strains were cultivated according to standard procedures. Bacterial cryo-cultures were
(§4) resuspended into fresh MHBII (cation adjusted) medium. The resuspension
(§5) assay plate (Corning, #3788).
(§6) in parallel as a positive control. […]

A. baum. ATCC BAA-1710 = assay: MIC assay; type: cell-based; settings: Acinetobacter baumannii, ATCCBAA1710; read-out: MIC A. baum. ATCC BAA-1710
Protocol: as §1, §2, §3, §4, §5, §6

A. baum. CIP-105742 = assay: MIC assay; type: cell-based; settings: Acinetobacter baumannii, CIP105742; read-out: MIC A. baum. CIP-105742
Protocol: as §1, §2, §3, §4, §5, §6

A. baum. CIP-107292 = assay: MIC assay; type: cell-based; settings: Acinetobacter baumannii, CIP107292; read-out: MIC A. baum. CIP-107292
Protocol: as §1, §2, §3, §4, §5, §6

A. baum. DSM-30008 = assay: MIC assay; type: cell-based; settings: Acinetobacter baumannii, DSM30008; reference strain; read-out: MIC A. baum. DSM-30008
Protocol: as §1, §2, §3, §4, §5, §6

A. baum. R835 = assay: MIC assay; type: cell-based; settings: Acinetobacter baumannii; read-out: MIC A. baum. R835
Protocol: as §1, §2, §3, §4, §5, §6

E. coli ATCC-25922 = assay: MIC assay; type: cell-based; settings: Escherichia coli, ATCC25922; reference strain; read-out: MIC E. coli ATCC-25922
Protocol: as §1, §2, §3, §4, §5, §6

E. coli LM705 = assay: MIC assay; type: cell-based; settings: Escherichia coli, LM705, read-out: MIC E. coli LM705
Protocol: as §1, §2, §3, §4, §5, §6

K. pneum. CIP-104298 = assay: MIC assay; type: cell-based; settings: Klebsiella pneumoniae, CIP104298; reference strain; read-out: MIC K. pneum. CIP-104298
Protocol: as §1, §2, §3, §4, §5, §6

K. pneum. R-1525 = assay: MIC assay; type: cell-based; settings: Klebsiella pneumoniae; read-out: MIC K. pneum. R-1525
Protocol: as §1, §2, §3, §4, §5, §6

P. ae. PA14 = assay: MIC assay; type: cell-based; settings: Pseudomonas aeruginosa, PA14; reference strain; read-out: MIC P. ae. PA14
Protocol: as §1, §2, §3, §4, §5, §6

P. ae. PA14ΔmexAB = assay: MIC assay; type: cell-based; settings: Pseudomonas aeruginosa, read-out: MIC P. ae. PA14ΔmexAB
Protocol: as §1, §2, §3, §4, §5, §6

S. aur. ATCC-29213 = assay: MIC assay; type: cell-based; settings: Staphylococcus aureus, ATCC29213; reference strain; read-out: MIC S. aur. ATCC-29213
Protocol: as §1, §2, §3, §4, §5, §6

[1] = system: S. pneum. DSM-11865 (PRSP); assay: MIC assay; type: cell-based; settings: Streptococcus pneumoniae; read-out: MIC S. pneum. DSM-11865 (PRSP)
Protocol: as §1, §2, §3, §4, §5, §6

E. faec. DSM-17050 (VRE) = assay: MIC assay; type: cell-based, Enterococcus faecium; settings: Enterococcus; read-out: MIC E. faec. DSM-17050 (VRE)
Protocol: as §1, §2, §3, §4, §5, §6

E. cloacae ATCC BAA-2468 = assay: MIC assay; type: cell-based; settings: Enterobacter cloacae, ATCCBAA2468; read-out: MIC E. cloacae ATCC BAA-2468
Protocol: as §1, §2, §3, §4, §5, §6

K. pneum. KP10581 = assay: MIC assay; type: cell-based; settings: Klebsiella pneumoniae; read-out: MIC K. pneum. KP10581
Protocol: as §1, §2, §3, §4, §5, §6

ESKAPE strains = assay: MIC-assays on a panel of representative ESKAPE strains, summary in words; type: cell-based; settings: summary of the MIC tables
Protocol: as §1, §2, §3, §4, §5, §6

SMILES | MIC (E. ae. CIP 106754) [µg/mL] | MIC (A. baum. ATCC BAA-1710) [µg/mL] | MIC (A. baum. CIP-105742) [µg/mL] | MIC (A. baum. CIP-107292) [µg/mL] | MIC (A. baum. DSM-30008) [µg/mL] | MIC (A. baum. R835) [µg/mL] | MIC (E. coli ATCC-25922) [µg/mL] | MIC (E. coli LM705) [µg/mL] | MIC (K. pneum. CIP-104298) [µg/mL] | MIC (K. pneum. R-1525) [µg/mL] | MIC (P. ae. PA14) [µg/mL] | MIC (P. ae. PA14ΔmexAB) [µg/mL] | MIC (S. aur. ATCC-29213) [µg/mL] | MIC [1] [µg/mL] | MIC (E. faec. DSM-17050 (VRE)) [µg/mL] | MIC (E. cloacae ATCC BAA-2468) [µg/mL] | MIC (K. pneum. KP10581) [µg/mL] | antibacterial activity on the pathogen panel, in words (ESKAPE strains)
O=C(O)c1cn(C2CC2)c2cc(N3CCNCC3)c(F)cc2c1=O [CIP, ciprofloxacin, reference compound] | > 6.4 | 32 (≈ 96.6 µM) | 0.03 to 0.25 (≈ 0.0905 to 0.754 µM) | 64 (≈ 193 µM) | 0.05 to 0.25 (≈ 0.151 to 0.754 µM) | 32 (≈ 96.6 µM) | 0.01 to 0.03 (≈ 0.0302 to 0.0905 µM) | > 6.4 | 0.025 to 0.05 (≈ 0.0754 to 0.151 µM) | > 64 | 0.025 to 0.2 (≈ 0.0754 to 0.604 µM) | 0.006 to 0.1 (≈ 0.0181 to 0.302 µM) | 0.2 to 1 (≈ 0.604 to 3.02 µM) | > 6.4 | 0.05 to 4 (≈ 0.151 to 12.1 µM) |  |  | 
CO[C@@H](C(N)=O)[C@H](NC(=O)c1ccc(NC(=O)c2ccc(C#N)cc2)cc1)C(=O)Nc1ccc(C(=O)Nc2ccc(C(=O)Nc3ccc(C(=O)O)cc3)c(O)c2OC(C)C)cc1 [CN861 1, reference compound] | 4 (≈ 4.75 µM) | 8 (≈ 9.5 µM) | 0.25 (≈ 0.297 µM) | > 64 | 1 (≈ 1.19 µM) | 64 (≈ 76 µM) | 0.25 (≈ 0.297 µM) | 0.64 (≈ 0.76 µM) | 16 (≈ 19 µM) | 16 (≈ 19 µM) | 16 (≈ 19 µM) | 1 (≈ 1.19 µM) | 0.125 (≈ 0.148 µM) |  |  | 32 (≈ 38 µM) | 2 (≈ 2.38 µM) | 
C#CCC(NC(=O)c1ccc(NC(=O)c2ccc(C#N)cc2)cc1)C(=O)Nc1ccc(C(=O)Nc2ccc(C(=O)Nc3ccc(C(=O)O)cc3)c(O)c2OC(C)C)cc1 (stereo not drawn) [CN-CC-861 2, reference compound] | 0.125 to 4 (≈ 0.158 to 5.05 µM) | 0.06 to 0.25 (≈ 0.0757 to 0.315 µM) | 0.02 (≈ 0.0252 µM) | 0.5 to 1 (≈ 0.631 to 1.26 µM) | 0.02 to 0.03 (≈ 0.0252 to 0.0378 µM) | 1 (≈ 1.26 µM) |  | 0.03 to 0.2 (≈ 0.0378 to 0.252 µM) | 8 (≈ 10.1 µM) |  | 0.5 to 16 (≈ 0.631 to 20.2 µM) | 0.03 to 0.5 (≈ 0.0378 to 0.631 µM) | 0.02 (≈ 0.0252 µM) |  | < 0.03 |  | 0.06 to 0.25 (≈ 0.0757 to 0.315 µM) | 
C#CC[C@H](NC(=O)c1ccc(NC(=O)c2ccc(C#N)cc2)cc1)C(=O)Nc1ccc(C(=O)Nc2cc(O)c(C(=O)Nc3ccc(C(=O)O)cc3)cc2OC(C)C)cc1 [Cmpd. 3] | > 64 | > 64 | 2 (≈ 2.52 µM) | > 64 | 1 (≈ 1.26 µM) | > 64 | 1 (≈ 1.26 µM) | > 64 | > 64 | > 64 | > 64 | > 64 | > 64 | > 64 | > 64 | > 64 | > 64 | 
C#CCC(NC(=O)c1ccc(NC(=O)c2ccc(C#N)cc2)cc1)C(=O)Nc1ccc(C(=O)Nc2ccc(C(=O)Nc3ccc(C(=O)O)cc3)c(Cl)c2OC(C)C)cc1 (stereo not drawn) [Cmpd. 5] | > 64 | > 8 | > 8 | > 8 | > 8 | > 8 | > 64 | > 64 | > 64 | > 64 | > 64 | > 64 | > 64 | > 64 | > 64 | > 64 | > 64 | abolished the activity in all tested strains
C#CC[C@H](NC(=O)c1ccc(NC(=O)c2ccc(C#N)cc2)cc1)C(=O)Nc1ccc(C(=O)Nc2ccc(C(=O)Nc3ccc(C(=O)O)cc3)c(Br)c2OC(C)C)cc1 [Cmpd. 6] | > 64 | > 8 | > 8 | > 8 | > 8 | > 8 | > 64 | > 64 | > 64 | > 64 | > 64 | > 64 | > 64 | > 64 | > 64 | > 64 | > 64 | abolished the activity in all tested strains
